Read-outs that look alike come from different tables or passages of the source. Bridge positions count the residues as written; N and C are the ends. Square brackets hold non-standard residues; d marks the D form. Ends that are not written are not given here. Peptide text beside a SMILES is read from it. R8 = C=CCCCCCC[C@@](C)(N)C(=O)O; S5 = C=CCCC[C@](C)(N)C(=O)O
Tests used:
[1] = tested on: HER2; test: EGF-induced endolysosomal degradation of HER2, Western blot; assay type: cell-based; conditions: SKBR3, 2 μM, 200 ng/ml EGF
Experimental: (§1) FIG. 9 is a schematic diagram of the result showing peptides based on (I7-01s) scaffold are potent inducers of endolysosomal trafficking. (a-c) Western blot to assess the HER2 and EGFR levels in SKBR3 cells. Cells are starved overnight and are treated with 200 ng/ml EGF respectively with vehicle control (a), 2 μM Tat-SP4 (b), 2 μM i7-01s-31 (c). (d & e) Time-dependent plots to quantify HER2 and EGFR degradation profiles after three independent experiments. The levels of HER2 (d) and EGFR (e) are normalized to the β-actin level at different time points and then further normalized to time 0, when the ligand EGF is added. Data are presented as mean±SEM (n=3).
In some embodiments, the Beclin 1-targeting stapled peptide provided by the present disclosure can effectively promote endolysosomal trafficking. As a scaffolding member of the PI3KC3 complex, Beclin 1 is essential for multiple PI3KC3-dependent processes including autophagy, endolysosomal trafficking and phagocytosis. To assess the efficacy of the newly designed peptides on the endolysosomal trafficking process, the ligand-induced endolysosomal degradation of cell surface receptors HER2 and EGFR is characterized by western blotting using SKBR3 breast cancer cell line that over-expresses both EGFR and HER2. […] In contrast, i7-01s-31 treatment at 2 μM results in significant reduction of HER2 level, with about 50% decrease at 15 hours post EGF stimulation, and about 70% decrease at 24 hours (as shown in FIGS. 9c & 9d). i7-01s-31 treatment also strongly promotes EGFR degradation, with approximately 60% reduction at 15 hours post EGF stimulation (as shown in FIGS. 9c & 9e).
Whole cell lysates are extracted using Laemmli sample buffer (62.5 mM Tris-HCl, pH 6.8, 2% SDS, 25% glycerol, 5% β-mercaptoethanol) supplemented with EDTA-free protease inhibitor cocktail (Roche). Protein concentration is determined using a standard Bradford assay before immunoblotting. Protein samples are separated by SDS-PAGE, transferred to a PVDF membrane (Millipore, USA), and incubated with the primary antibodies and HRP-conjugated secondary antibodies. […]

[2] = tested on: EGFR; test: EGF-induced endolysosomal degradation of EGFR, Western blot; assay type: cell-based; conditions: SKBR3, 2 μM, 200 ng/ml EGF
Experimental: as §1
In some embodiments, the Beclin 1-targeting stapled peptide provided by the present disclosure can effectively promote endolysosomal trafficking. As a scaffolding member of the PI3KC3 complex, Beclin 1 is essential for multiple PI3KC3-dependent processes including autophagy, endolysosomal trafficking and phagocytosis. […]
Whole cell lysates are extracted using Laemmli sample buffer (62.5 mM Tris-HCl, pH 6.8, 2% SDS, 25% glycerol, 5% β-mercaptoethanol) supplemented with EDTA-free protease inhibitor cocktail (Roche). Protein concentration is determined using a standard Bradford assay before immunoblotting. […]

[3] = tested on: SKBR3 cells; test: Flow cytometry with Annexin V FITC-PI staining; assay type: cell-based
Experimental: FIG. 12 is a schematic diagram of the result showing the peptides based on strategy (i7-01s) scaffold induce cell death with necrotic features. Flow cytometry analysis with Annexin V FITC-PI staining is performed in SKBR3 cells after treatment of the indicated peptides for 24 hours.
The degree of cellular apoptosis and necrosis is assessed by flow cytometry following the standard protocol provided by the manufacturer. Briefly, SKBR3 cells after the indicated peptide treatment are harvested by trypsin, labelled with Annexin V and PI (Invitrogen), subjected to flow cytometer system (BD Accuri C6), and analyzed by BD Accuri C6 software. The cell populations can be distinguished by the staining of Annexin V/PI. Typically, cellular population in the lower left quadrant is live cells (Annexin V^−, PI^−), the lower right quadrant represents early apoptotic cells (Annexin V^+, PI^−), the upper right quadrant represents late apoptotic cells (Annexin V^+, PI^+), the upper left quadrant represents necrotic cells (Annexin V^−, PI^+).

[4] = biological target: T1, Beclin 1 coiled coil domain (Homo sapiens, UniProt Q14457); test: Isothermal titration calorimetry (ITC) binding affinity; conditions: 25° C., pH 7.4, Tat-fused peptide
T1 construct: the coiled coil domain of human Beclin 1 (residues 176-268); thioredoxin-6xHis fusion tag with HRV 3C protease cleavage site; made in house; host or cells: Escherichia coli BL21(DE3)
Experimental: The expression and purification of Beclin 1 coiled coil domain is performed as described previously. Briefly, the coiled coil domain of human Beclin 1 (residues 176-268) is cloned into the modified pET32a vector containing the human rhinovirus (HRV) 3C protease cleavage site and thioredoxin-6×His fusion tag. Recombinant protein for the Beclin1 coiled oil domain is expressed in Escherichia coli BL21(DE3) and purified by Ni^2+-NTA affinity chromatography (His Trap HP, GE Healthcare) first and followed by size-exclusion chromatography (Superdex 75, GE Healthcare).
ITC assays are carried out by MicroCal PEAQ-ITC Automated (Marvern) at 25° C. All designed peptides and purified protein for the Beclin 1 coiled coil domain are dialyzed into the buffer containing 50 mM Tris, 150 mM NaCl at pH 7.4. For each titration assay, the injection syringe is loaded with 40 μl of peptide and the cell is loaded with Beclin 1 coiled coil domain protein. Typically, titrations consist of 19 injections, and each injection is performed at a time interval of 180 seconds to ensure that the titration peak returns to the baseline. The titration data are analyzed using the MicroCal PEAQ-ITC Analysis software and fitted by the one-site binding model.

T1 sequence (Q14457 176-268): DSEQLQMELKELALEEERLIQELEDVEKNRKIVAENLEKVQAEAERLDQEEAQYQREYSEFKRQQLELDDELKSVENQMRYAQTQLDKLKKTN

Row | Kd [4] | Molecule | change of Annexin V positive cells (apoptosis) ([3]; SKBR3, 24 hours) | also measured
1 |  | CC[C@H](C)[C@H](NC(=O)[C@H](CC(C)C)NC(=O)[C@H](CCCNC(=N)N)NC(=O)[C@H](CCCNC(=N)N)NC(=O)[C@H](CCCNC(=N)N)NC(=O)[C@H](CCCNC(=N)N)NC(=O)[C@H](CCC(N)=O)NC(=O)[C@H](CCCNC(=N)N)NC(=O)[C@H](CCCNC(=N)N)NC(=O)[C@H](CCCCN)NC(=O)[C@H](CCCCN)NC(=O)[C@H](CCCNC(=N)N)NC(=O)CNC(=O)[C@H](Cc1ccc(O)cc1)NC(C)=O)C(=O)N[C@@H](CO)C(=O)N[C@@H](CCC(=O)O)C(=O)N[C@@H](CC(C)C)C(=O)N[C@]1(C)CCCCCCC=CCCC[C@@](C)(C(=O)N[C@@H](C)C(N)=O)NC(=O)[C@H](CCCNC(=N)N)NC(=O)[C@H](CCC(N)=O)NC(=O)[C@H](CCCCN)NC(=O)[C@H](CCC(=O)O)NC(=O)[C@H](CCCNC(=N)N)NC(=O)[C@H](CC(=O)O)NC1=O [Tat-SP4, Ac-[Tat]-RLISEL(R8)DREKQR(S5)A-NH2, reference compound] (Ac-YGRKKRRQRRRRLISEL[R8]DREKQR[S5]A-NH2; staple 18-25) | no increase | HER2 degradation profile [1]: does not show any noticeable impact; EGFR degradation profile [2]: does not show any noticeable impact; PI positive cells ([3]; SKBR3, 10 μM, 24 hours): approximately 8%; change of PI positive staining cells (dead cells) ([3]; SKBR3, 24 hours): significant increase
2 |  | COc1cccc2c1C(=O)c1c(O)c3c(c(O)c1C2=O)C[C@@](O)(C(=O)CO)C[C@@H]3O[C@H]1C[C@H](N)[C@H](O)[C@H](C)O1 [doxorubicin, reference compound] | significant increase | 
3 |  | CC[C@H](C)[C@H](NC(=O)[C@H](CC(C)C)NC(=O)[C@H](C)NC(=O)[C@H](CCCNC(=N)N)NC(=O)[C@H](CCCNC(=N)N)NC(=O)[C@H](CCCNC(=N)N)NC(=O)[C@H](CCC(N)=O)NC(=O)[C@H](CCCNC(=N)N)NC(=O)[C@H](CCCNC(=N)N)NC(=O)[C@H](CCCCN)NC(=O)[C@H](CCCCN)NC(=O)[C@H](CCCNC(=N)N)NC(=O)CNC(=O)[C@H](Cc1ccc(O)cc1)NC(C)=O)C(=O)N[C@@H](CCC(N)=O)C(=O)N[C@]1(C)CCCCCCC=CCCC[C@@](C)(C(=O)N[C@@H](CCCNC(=N)N)C(=O)N[C@@H](CCCCN)C(=O)N[C@@H](CCCNC(=N)N)C(N)=O)NC(=O)[C@H](CCCCN)NC(=O)[C@H](CCC(=O)O)NC(=O)[C@H](C(C)C)NC(=O)[C@H](CC(=O)O)NC(=O)[C@H](CCC(=O)O)NC(=O)[C@H](CCC(N)=O)NC1=O [i7-01s-54, Ace-ALIQR8QEDVEKS5RKR-Nme] (Ac-YGRKKRRQRRRALIQ[R8]QEDVEK[S5]RKR-NH2; staple 16-23) |  | Kd ([4]; read-out: Kd): 311 ± 54.6 µM
4 | No binding | Ace-RFIQR8LEVVIKS5RSV-Nme (Ac-RFIQ[R8]LEVVIK[S5]RSV; staple 5-12; not fully specified (C-terminus); printed as Ace-RFIQR8LEVVIKS5RSV-Nme) [i7-01s-34] |  | 
5 | No binding | Ace-RLIQR8REDVEKS5RKR-Nme (Ac-RLIQ[R8]REDVEK[S5]RKR; staple 5-12; not fully specified (C-terminus); printed as Ace-RLIQR8REDVEKS5RKR-Nme) [i7-01s-36] |  | 
6 | No binding | Ace-RLLQR8LKTVLKS5RSV-Nme (Ac-RLLQ[R8]LKTVLK[S5]RSV; staple 5-12; not fully specified (C-terminus); printed as Ace-RLLQR8LKTVLKS5RSV-Nme) [i7-01s-30] |  | 
